# Results taken from the METLIN SMRT retention time set (Domingo-Almenara et al. 2019).
# Assay: gradient 5% acetonitrile 3 min, to 50% in 2 min, to 85% in 15 min, held 3 min, 100 µL/min
# Conditions: column: Zorbax Extend-C18 2.1 x 50 mm; eluents: water / acetonitrile, 0.1% formic acid
# Outline: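 The mobile phases were water and acetonitrile, each with 0.1% formic acid, pumped at 100 μL/min through a Zorbax Extend-C18 column (2.1 × 50 mm, 1.8 μm). Pure standards were injected as mixtures of ~100 molecules and detected by a quadrupole time-of-flight mass spectrometer in positive and negative ionization mode. Retention time came from computationally picked adduct peaks, each inspected by hand.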
row,Structure (SMILES),RP-LC retention time [s]
1,CCn1c(C)c(C(=O)CN(CC2CCCO2)C(=O)c2ccc(Cl)cc2)c(C)c1C(=O)OC (centres undefined),978
2,Cc1ccc(NC(=O)Cn2nc(N3CCCC3)c3ccccc3c2=O)cc1Cl,1060
3,CCOC(=O)c1nc(Nc2ccc(C(=O)OCC(C)C)cc2)c2ccccc2n1,1090
4,COc1cc(C(=O)N2CC(=O)Nc3ccc(F)cc3C2c2ccccc2)cc(OC)c1OC (centres undefined),906
5,CC(=O)N1CCc2cc(CNS(=O)(=O)c3ccccc3)ccc21,691
6,N#Cc1cccc(NC(=O)COc2ccc(-c3nnc4n3CCCC4)cc2)c1,653
7,CCCNC(=O)N1[C@H]2CC[C@@H]1c1cnc(-c3ccccc3)nc1C2,790
8,COc1cccc(-n2ccn3cc(-c4ccc(Cl)cc4)nc3c2=O)c1,875
9,O=c1c2scc(-c3cccc(F)c3)c2ncn1Cc1cccnc1,699
10,Cc1cccc(CN2CCc3nc(N4CCN(c5ccccc5F)CC4)ncc3C2)c1,810
11,CCOc1ccc(C(c2c(O)cc(C)n(CCOC)c2=O)N2CCN(c3ccccn3)CC2)cc1 (centres undefined),728
12,COc1ccc(C(=O)N2CCN(c3cc(-c4cccs4)[nH]n3)CC2)c(OC)c1,739
13,CC1Oc2ccc(S(=O)(=O)N3CCC(C(=O)N4CCN(c5ccccc5)CC4)CC3)cc2NC1=O (centres undefined),848
14,Cc1ccccc1CN1CC(F)(F)C[C@H]1COc1ccncc1,821
15,CCn1cc(S(=O)(=O)N2CC(N(Cc3cccnc3)CC(C)C)C2)cn1,592
16,O=C(CN1CCSc2ccccc21)NCCCN1CCN(Cc2ccccc2)CC1,666
17,CCCOc1ccc(S(=O)(=O)NCC2CCN(C(=O)c3ccccc3F)CC2)cc1C,598
18,Cc1ccc(-n2c(=O)c3c(cc(C)n3C)n(CC(=O)Nc3ccc(C)c(C)c3)c2=O)cc1,906
19,Cn1cccc1Cc1nnc(SCC(=O)NCc2ccco2)n1Cc1ccccc1,708
20,Cn1nc(C(=O)NCC2(C)CCOCC2)c2ccccc21,763
21,CO[C@@H]1C=C2CCN(C)[C@@H]2C2c3cc4c(cc3C(=O)O[C@H]21)OCO4 (some centres undefined),636
22,O=C(CCCc1nnc2c(=O)n(-c3ccc(F)cc3)ccn12)NCCc1c[nH]c2ccccc12,699
23,CCOC(=O)c1c(C)[nH]c(CCC(=O)NC(C)c2ccc3c(c2)OCCO3)c1C (centres undefined),854

row,Structure (SMILES),RP-LC retention time [s]
1,O=C1CC(c2noc(-c3ccc(F)cc3)n2)CN1Cc1ccccc1 (centres undefined),931
2,CCC(=O)N1c2ccc(S(=O)(=O)N3CCCCC3)cc2CC1C(=O)NCc1ccc(Cl)cc1 (centres undefined),924
3,COc1ccc(N2CCN(c3cc(SCC(=O)Nc4cc(Cl)ccc4C)ncn3)CC2)cc1,1130
4,CCOC(=O)c1c(C)[nH]c(NC(=O)Nc2ccccc2C)c1C,912
5,COc1ccc(-n2ccn3cc(-c4ccc5c(c4)OCO5)nc3c2=O)cc1,766
6,Cn1c(=O)c(=O)n(C)c2cc(N3CCCC3)c(NC(=O)C3CC3)cc21,614
7,Cc1ccc(F)cc1NS(=O)(=O)c1cc2c(s1)CCN(C(=O)C1CCC1)C2,877
8,CCc1ccccc1NC(=O)Cn1nc2nc(N3CCCC(C)C3)ccn2c1=O (centres undefined),838
9,CCOC(=O)c1cnn(-c2ccc(C(=O)Nc3ccc(Br)cc3)cn2)c1N,1020
10,CCOc1ccc2ncc(C#N)c(N3CCC(C(=O)Nc4ccccc4OCC)CC3)c2c1,984
11,CN(C)CCNC(=O)c1ncn2c1C(=O)N(C1CC1)C(C)(C(=O)NCc1ccc(F)cc1)C2 (centres undefined),600
12,Cc1cc(C)cc(S(=O)(=O)Nc2ccc3nc(N4CCN(C)CC4)cc(C(=O)O)c3c2)c1,612
13,Cc1nc(-c2csc(S(=O)(=O)N3CCC(C(=O)N4CCOCC4)CC3)c2)no1,719
14,Cc1nc(NC(=O)N2CCC[C@H]2C(N)=O)sc1-c1ccnc(C(C)(C)C(F)(F)F)c1,746
15,C=CCn1c(NCc2cccc(Br)c2)nc2ccccc21,703
16,CCS(=O)(=O)c1ccc2c(c1)N(Cc1nc(-c3ccccc3Cl)no1)C(=O)CO2,895
17,CCCNS(=O)(=O)c1cc(-c2nnc(-c3ccccc3)o2)ccc1F,939
18,CC(C)NC(=O)C1CCCN(c2nc3ncn(CC(=O)NCc4ccc(F)cc4)c(=O)c3s2)C1 (centres undefined),689
19,CCOc1ccc(-c2nc3ncccn3c2NCc2ccccc2)cc1OC,697
20,C=Cc1ccc(Cn2cc(S(=O)(=O)N3CCCCCC3)ccc2=O)cc1,1020
21,Cn1cc(CC(=O)NCc2ccc(Cl)cc2)c2cccnc21,706
22,O=C(CCSc1ccccc1)NCCn1nc(-c2ccc(Cl)cc2)ccc1=O,600
23,Cc1csc(-c2cc(S(=O)(=O)Nc3ccc(F)c(Cl)c3)c(C)s2)n1,1070

row,Structure (SMILES),RP-LC retention time [s]
1,CCOCCCNC(=O)CCc1cc2cc(OC)ccc2[nH]c1=O,615
2,CC(=O)N1CCc2cc(N3CC(C(=O)NC4CCCC4)CC3=O)ccc21 (centres undefined),642
3,Cc1ccc(-n2ncc3c(NCCN(C)C)ncnc32)cc1C,648
4,O=C(CCSc1ccccc1)NCCn1cnc(-c2ccc(F)cc2)cc1=O,759
5,Cc1cc(N2CCN(C(=O)c3cccc(C(F)(F)F)c3)CC2)nc2nncn12,627
6,Cc1ccc(NC(=O)Cc2c(C(=O)O)c(C)cn2C)nc1,642
7,COc1ccc(-c2noc(Cn3ccn(-c4cc(C)cc(C)c4)c(=O)c3=O)n2)cc1OC,834
8,COCc1nnc([C@@H]2CC(F)(F)CN2Cc2ccc(OC)cc2)o1,837
9,O=C(COc1ccc(F)cc1)N1CCOc2ccc(N3CCOCC3)cc2C1,787
10,COc1ccc(C(=O)Nc2ccc3c(c2)Sc2ncccc2C(=O)N3C)cc1OC,712
11,Cc1cc(C)n2c(Nc3ccccc3)c(-c3ccccc3)nc2n1,671
12,CCn1c(CC2CCN(C(=O)NCCc3ccccc3)C2)nc2cccnc21 (centres undefined),588
13,COC1CN(C2CCN(C(=O)c3cccs3)CC2)C12CCOCC2 (centres undefined),572
14,CCOc1ccccc1NC(=O)N1CCC2(CC1)NC(=O)c1ccc(Cl)cc1N2C,858
15,CSc1ccc(CNC(=O)CC2CCN(C(=O)c3[nH]c(C)cc3C)CC2)cc1,792
16,Cc1nnc(NC(=O)Cn2cccn2)s1,562
17,CCOCCCNC(=O)[C@@H]1[C@H](c2cc(OC)c(OC)c(OC)c2)c2cc3c(cc2[C@H](O)[C@H]1CO)OCO3,653
18,CCc1noc([C@@H]2CC(F)(F)CN2C(=O)c2ocnc2C)n1,720
19,c1ccc(-c2nc(N3CCCCCC3)c3ccccc3n2)cc1,768
20,c1ccc(-c2nc3ccccc3s2)nc1,1010
21,CCCN1C(=O)COc2ccc(-c3csc(NC(=O)c4ccccc4C)n3)cc21,1060
22,O=C(NC1CCCCC1)C1CCCN(c2ccc(=O)n(-c3ccc(F)cc3)n2)C1 (centres undefined),804
23,O=C([C@@H]1C[C@H](F)CN1C(=O)Nc1cccc(C(F)(F)F)c1)N1CCCCC1,804

row,Structure (SMILES),RP-LC retention time [s]
1,CCn1c(=O)c(N2CCN(C(=O)Nc3cc(C)ccc3C)CC2)nc2ccccc21,984
2,COC(=O)C1=C(NC(=O)c2cccc(F)c2)CCS1,964
3,CCc1cccc(N2C(=O)CN(S(=O)(=O)CC)CC2(C)C(=O)NCc2ccccc2)c1 (centres undefined),856
4,CC(=O)N1CCc2cc(S(=O)(=O)C(C)CC(=O)N3CCN(c4ccccc4)CC3)ccc21 (centres undefined),787
5,Clc1ccc(Nc2c(-c3ccc(Cl)cc3)nc3cnccn23)cc1,1040
6,Cc1cccc2nnc(N3CCCC(C(=O)Nc4ccccc4)C3)n12 (centres undefined),680
7,Cc1nnc2c(=O)n(CC(=O)N3CCC(Cc4ccccc4)CC3)c3cccnc3n12,814
8,CCN(CC)CCCNC(=O)C(C)n1c(=O)c(C(F)(F)F)nc2ccccc21 (centres undefined),664
9,CC(=O)Nc1cc2c(cc1SC(C)C)n(C)c(=O)n2C,705
10,CCN1CCCn2cc(S(=O)(=O)N3CCN(c4cccc(Cl)c4)CC3)cc2C1=O,894
11,CC1CCN(S(=O)(=O)c2ccc3nn(Cc4ccccc4F)c(=O)n3c2)CC1,653
12,Cc1ccc(CNC(=O)c2csc(-c3ccc(N4CCCC4)nc3)n2)o1,679
13,Cc1ccc(C(=O)NCc2nc(-c3ccc(-c4csc(C5CC5)n4)cc3)no2)cc1,1110
14,COc1ccccc1CNC(=O)CN1C(=O)C2CCCCN2c2ccc(S(=O)(=O)N(C)C)cc21 (centres undefined),885
15,Cn1ccnc1C(=O)N1CCCCCCNC(=O)[C@@H]2CCCC[C@@H]21,627
16,CN(CCc1noc(C2CN(C(=O)c3ccsc3)C2)n1)C(=O)C1CC1,647
17,Cc1ccc(CSc2nnc3c(S(=O)(=O)N4CCCC4)cccn23)cc1,852
18,Cc1ccc(OCCOCC(O)CN(CCO)CCO)cc1C (centres undefined),569
19,CN(C)c1ccc2c(c1)CN(C(=O)C1CCC1)CCO2,590
20,c1cc(-c2noc(-c3ccsc3)n2)cc(N2CCCC2)n1,664
